Reference: US7718681B2, “5-(1,3-Diaryl-1H-pyrazol-4-ylmethylene)-thiazolidine,2,4-dione derivatives useful as anticancer agent” (Korea Research Institute of Chemical Technology, priority 2005, dated 2010)
pIC50: −log10 of the molar value.

Experiments:
[1] = molecular target: T1, CDC25B (Homo sapiens, UniProt P30305); experiment: CDC25B enzyme assay; assay type: biochemical; conditions: catalytic domain of CDC25B (aa 378-566) GST fusion, 20 μm FDP, 1 hour at room temperature, fluorescence
T1 construct: Catalytic domain of CDC25B (aa 378-566) was expressed and produced in E. coli into a GST fusion protein; GST; made in house; host or cells: E. coli
T1 sequence (P30305 378-566 isoform P30305-2): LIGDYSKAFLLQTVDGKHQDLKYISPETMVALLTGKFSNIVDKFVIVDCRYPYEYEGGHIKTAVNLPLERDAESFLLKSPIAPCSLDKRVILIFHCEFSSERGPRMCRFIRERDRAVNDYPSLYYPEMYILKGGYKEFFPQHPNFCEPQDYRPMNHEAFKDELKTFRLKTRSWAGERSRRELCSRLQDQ
Description: Catalytic domain of CDC25B (aa 378-566) was expressed and produced in E. coli into a GST fusion protein, which was used as zymogen. Enzyme assay was carried out on a 96-well plate, with the final reaction volume per well adjusted to 200 μL. 170 μL of a buffer solution (30 mM Tris buffer, pH 8.5, 75 mM NaCl, 0.67 mM EDTA, 1 mM DTT), 20 μL (0.2 μg) of CDC25B enzyme and 10 μL of the test compound dissolved in DMSO were added, so that the final concentration became 1 μg/mL CDC25B and 20 μm FDP. Measurement was made after culturing at room temperature for 1 hour. FDP and DTT were added to the buffer solution just before assay, so that a fresh status could be maintained. After 1 hour of culturing, fluorescence resultant from the enzymatic reaction was measured at 485 nm (excitation) and 538 nm (emission).
The screened compound was treated to a final concentration of 1, 2, 5 and 10 μm to obtain the % inhibition value. If the inhibitory effect was low (less than 50% at […]), the concentration of the compound was increased to 20 μm and the % inhibition value and the IC50 value were obtained.

[2] = test system: C33A human uterine cancer cell line; conditions: mouse, in vivo
Description: In order to verify the in vivo anticancer effect of the compounds of the present invention, C33A human uterine cancer cell line was subcutaneously injected at the abdominal walls of 6- to 8-week-old male nude mice. […] For a positive control, cisplatin (4 mg/kg), which is widely used as an anticancer agent in clinical tests, was used. The dosage given was 0.25 mL per each administration once a day for a period of 7 consecutive days. The volume of the tumor was calculated by the following equation 3, by measuring the long and short axes with a caliper. Tumor volume=(Short axis,mm)^2×(Long axis,mm)×0.523 Equation 3

Compound | pIC50 [1] | negative responses (reduced motion, lack of appetite) [2]
CCN1C(=O)SC(=Cc2cn(-c3ccccc3)nc2-c2ccccc2Cl)C1=O [Compound 2] | 4.94 | 
CN1C(=O)S/C(=C\c2cn(-c3ccccc3)nc2-c2cccc([N+](=O)[O-])c2)C1=O [Compound 15, 5-[3-(3-nitro)-1-phenyl-1H-pyrazol-4-ylmethylene]-3-methyl-thiazolidine-2,4-dione] | 5.08 | 
O=C1NC(=O)/C(=C/c2cn(-c3ccccc3)nc2-c2cccc(C(F)(F)F)c2)S1 [Compound 16, 5-[3-(3-trifluoromethyl)-1-phenyl-1H-pyrazol-4-ylmethylene]-thiazolidine-2,4-dione] | 6.64 | 
CCCOc1cc(OCCC)cc(-c2nn(-c3ccccc3)cc2/C=C2\SC(=O)NC2=O)c1 [Compound 25] | 5.73 | 
O=C1NC(=O)/C(=C/c2cn(-c3ccccc3)nc2-c2cc(OCC3CC3)cc(OCC3CC3)c2)S1 [Compound 35] | 5.82 | 
O=C1NC(=O)/C(=C/c2cn(-c3ccccc3)nc2-c2ccc(OC(F)F)c(OCC3CC3)c2)S1 [Compound 52] | 5.55 | 
O=C1NC(=O)C(=Cc2cn(-c3ccccc3)nc2-c2cc(F)cc(F)c2)S1 [Compound 58, 5-[3-(3,5-difluoro-phenyl)-1-phenyl-1H-pyrazol-4-ylmethylene]-thiazolidine-2,4-dione] | 5.24 | 
O=C1NC(=O)/C(=C/c2cn(-c3ccccc3)nc2-c2cc(OCc3ccccc3)cc(OCc3ccccc3)c2)S1 [Compound 62] | 6.64 | 
O=C1NC(=O)/C(=C/c2cn(-c3ccc([N+](=O)[O-])cc3)nc2-c2cc(OCc3ccccc3)cc(OCc3ccccc3)c2)S1 [Compound 65] | 6.68 | 
COc1c(Cl)cccc1-c1nn(-c2ccccc2)cc1/C=C1\SC(=O)NC1=O [Compound 66] | 4.98 | 
CCCOc1c(Cl)cccc1-c1nn(-c2ccccc2)cc1/C=C1\SC(=O)NC1=O [Compound 70] | 5.39 | 
CCCOc1ccc(-c2nn(-c3ccccc3)cc2/C=C2\SC(=O)NC2=O)cc1Br [Compound 82] | 5.55 | 
CCCOc1ccc(-c2nn(-c3ccccc3)cc2/C=C2\SC(=O)N(CCC)C2=O)cc1Br [Compound 85] | 5.69 | 
O=C1NC(=O)/C(=C/c2cn(-c3ccccc3)nc2-c2ccc(OCC3CC3)c(Br)c2)S1 [Compound 94] | 5.79 | 
C#CCOc1ccc(-c2nn(-c3ccccc3)cc2/C=C2\SC(=O)NC2=O)cc1Br [Compound 100] | 5.53 | 
COc1ccc(-c2nn(-c3ccccc3)cc2/C=C2\SC(=O)NC2=O)cc1I [Compound 111] | 5.49 | 
CCOc1ccc(-c2nn(-c3ccccc3)cc2/C=C2\SC(=O)N(CC)C2=O)cc1I [Compound 117] | 6.23 | 
CCOc1ccc(-c2nn(-c3ccccc3)cc2C=C2SC(=O)NC2=O)cc1I [Compound 121] | 5.59 | 
CCCOc1ccc(-c2nn(-c3ccccc3)cc2/C=C2\SC(=O)NC2=O)cc1I [Compound 122] | 6.44 | 
C=CCOc1ccc(-c2nn(-c3ccccc3)cc2/C=C2\SC(=O)N(CC=C)C2=O)cc1I [Compound 132] | 5.44 | 
C#CCN1C(=O)S/C(=C\c2cn(-c3ccccc3)nc2-c2ccc(OCC=C)c(I)c2)C1=O [Compound 133] | 5.30 | 
CCCOc1ccc(-c2nn(-c3ccccc3)cc2/C=C2\SC(=O)NC2=O)cc1C(C)C [Compound 141] | 5.65 | 
COc1c(Br)cc(-c2nn(-c3ccccc3)cc2/C=C2\SC(=O)NC2=O)cc1Br [Compound 145] | 5.74 | 
CCOc1c(Br)cc(-c2nn(-c3ccccc3)cc2/C=C2\SC(=O)N(CC)C2=O)cc1Br [Compound 153] | 5.87 | 
CCCOc1c(Br)cc(-c2nn(-c3ccccc3)cc2/C=C2\SC(=O)NC2=O)cc1Br [Compound 163] | 5.82 | 
COc1c(C(C)C)cc(-c2nn(-c3ccccc3)cc2/C=C2\SC(=O)NC2=O)cc1C(C)C [Compound 184] | 5.44 | 
CC(C)(C)c1cc(-c2nn(-c3ccccc3)cc2/C=C2\SC(=O)NC2=O)cc(C(C)(C)C)c1O [Compound 192] | 5.40 | 
N.N.[Cl][Pt][Cl] [cisplatin, reference compound] |  | reduced motion or lack of appetite

Continued by rising pIC50 [1], values first:

pIC50 [1] | Compound | negative responses (reduced motion, lack of appetite) [2]
4.87 | C=CCN1C(=O)S/C(=C\c2cn(-c3ccccc3)nc2-c2cc(Br)c(OC(F)F)c(Br)c2)C1=O [Compound 182] | 
5.02 | O=C1NC(=O)C(=Cc2cn(-c3ccccc3)nc2-c2cccc(Br)c2)S1 [Compound 3] | 
5.03 | CCCN1C(=O)S/C(=C\c2cn(-c3ccccc3)nc2-c2ccc(OCC)c(I)c2)C1=O [Compound 118] | 
5.05 | CCN1C(=O)S/C(=C\c2cn(-c3ccccc3)nc2-c2ccccc2Br)C1=O [Compound 5] | 
5.14 | CCOc1c(Cl)cccc1-c1nn(-c2ccccc2)cc1/C=C1\SC(=O)N(CC)C1=O [Compound 69] | 
5.15 | C#CCN1C(=O)S/C(=C\c2cn(-c3ccccc3)nc2-c2cc(Br)c(OCC=C)c(Br)c2)C1=O [Compound 169] | 
5.24 | CC(C)Oc1cc(OC(C)C)cc(-c2nn(-c3ccccc3)cc2/C=C2\SC(=O)NC2=O)c1 [Compound 30] | 
5.25 | CCOc1ccc(-c2nn(-c3ccccc3)cc2C=C2SC(=O)NC2=O)cc1Br [Compound 77, 5-[3-(3-bromo-4-ethoxy-phenyl)-1-phenyl-1H-pyrazol-4-ylmethylene]-thiazolidine-2,4-dione] | 
5.47 | CCOc1c(Cl)cccc1-c1nn(-c2ccccc2)cc1/C=C1\SC(=O)NC1=O [Compound 67] | 
5.63 | CCN1C(=O)S/C(=C\c2cn(-c3ccccc3)nc2-c2cc(Br)c(OCC3CC3)c(Br)c2)C1=O [Compound 173] | 
5.66 | C=CCOc1ccc(-c2nn(-c3ccccc3)cc2/C=C2\SC(=O)NC2=O)cc1Br [Compound 88] | 
5.69 | COc1ccc(-c2nn(-c3ccccc3)cc2/C=C2\SC(=O)NC2=O)cc1C(C)C [Compound 136] | 
5.83 | CCCOc1ccc(-c2nn(-c3ccccc3)cc2/C=C2\SC(=O)NC2=O)cc1C(C)(C)C [Compound 142] | 
5.85 | CCOc1c(Br)cc(-c2nn(-c3ccccc3)cc2/C=C2\SC(=O)NC2=O)cc1Br [Compound 151] | 
5.96 | CCCOc1c(C(C)C)cc(-c2nn(-c3ccccc3)cc2/C=C2\SC(=O)NC2=O)cc1C(C)C [Compound 190] | 
6.15 | O=C1NC(=O)/C(=C/c2cn(-c3ccccc3)nc2-c2cc(Br)c(OC(F)F)c(Br)c2)S1 [Compound 178] | 
6.24 | CCOc1ccc(-c2nn(-c3ccccc3)cc2C=C2SC(=O)NC2=O)cc1I [Compound 115] | 
6.27 | O=C1NC(=O)/C(=C/c2cn(-c3ccccc3)nc2-c2cc(OC3CCCC3)cc(OC3CCCC3)c2)S1 [Compound 41] | 
6.77 | C=CCOc1c(Br)cc(-c2nn(-c3ccccc3)cc2/C=C2\SC(=O)NC2=O)cc1Br [Compound 164] | 
